From US12624029B2, “JAK inhibitor compounds, method for synthesizing same and use thereof” (GALDERMA HOLDING SA, priority 2020, dated 2026)

Key:
[1] = tested on: Salmonella typhimurium TA98 and TA100; assay: Mini Ames assay (TA98 and TA100); assay type: cell-based; settings: for increase in the mean number of revertants: TA98 and TA100, with or without metabolic activation (S9)
Source text: The Ames test in micro-method (in 6-well plates=mini Ames) follows the general principles of the standard Ames's technique. The Ames test used strains of bacteria Salmonella typhimurium that carry mutations in the genes involved in histidine synthesis. These strains are auxotrophic mutants, they require histidine for growth but cannot produce it. The assay was used to observe the ability of the test item to induce reverse mutations allowing the bacteria to grow in a histidine-free medium. The number of bacteria that revert and acquire the wild-type ability to grow in the absence of histidine can be estimated by counting the colonies that develop upon incubation. The use of different strains allows the identification of different mechanisms of gene mutation (TA98 for detection of frameshift mutations and TA100 for detection of base pair substitutions).
In a number of cases, the test item itself is not directly mutagenic but its metabolic derivatives are.
A toxicity assessment was performed on complete nutriment agar plate (with histidine) to define the highest concentration to be used in the genotoxicity assay. Solutions were prepared in 100% DMSO. The first concentration analyzed in the well (6-well plate) was 500 μg per plate followed by 7 serial dilutions (2 times factor of dilution). […] The viability of the positive and negative controls was analyzed for each strain, in the presence or absence of metabolic activation system, and were compared with historical data to validate the study. […]
Test items, positive and negative controls were incubated with the 2 bacterial strains. After 48 h incubation at 37° C. with and without metabolic activation (S9), the prototrophic mutant colonies that had grown on the plates were counted. The results were expressed as the mean number of revertants for each condition tested (3 replicates each) and for each concentration of the test item and controls. Induction ration, corresponding to the ratio of revertants in presence of test item versus spontaneous revertant, was determined for each concentration.

[2] = tested on: different pharmacological targets; assay: CEREP Safety Screen-44 in vitro pharmacology binding and enzyme/uptake assays; settings: tested at 10 μM; FIGS. 2-5
Experimental: An in vitro pharmacology assay was conducted to assess the capability of the compounds to interact with different pharmacological targets when tested at 10 μM in different binding and enzyme/uptake assays. The included targets are indicative of potential effects in major organs and drug-drug interactions.
Compound binding was calculated as a % inhibition of the binding of a radioactively labelled ligand specific for each target. Compounds were tested at 1.0E-05 M. Compound enzyme inhibition effect was calculated as a % inhibition of control enzyme activity. Results showing an inhibition or stimulation higher than 50% are considered to represent significant effects of the test compounds.

Row | Structure (SMILES) | mutagenicity ([1]; TA98 & TA100, with and without metabolic system) | increase in the mean number of revertants [1] | pharmacological effects in safety screen compared with Ruxolitinib [2]
1 | C=CCCN(C)S(=O)(=O)C[C@H]1C[C@@H](Nc2c(C#N)cnc3[nH]ccc23)C1 [Compound C, N-(But-3-en-1-yl)-1-((cis)-3-((5-cyano-1H-pyrrolo[2,3-b]pyridin-4-yl)amino)cyclobutyl)-N-methylmethanesulfonamide] | not considered to be mutagenic | did not induce a biologically significant increase | significantly improved pharmacological effects over Ruxolitinib
2 | CN(CC1CCC1)S(=O)(=O)C[C@H]1C[C@@H](Nc2c(C#N)cnc3[nH]ccc23)C1 [Compound D] | – | did not induce a biologically significant increase | significantly improved pharmacological effects over Ruxolitinib
